US20100010053A1, “COMPOUNDS” (priority 2008, published 2010)

Target: T1, human S1P1 receptor (EDG1) (Homo sapiens, UniProt P21453)
T1 construct: TEV protease site + Gal4-VP16 transcription factor (only in the Tango assay cells; not described for the GTPγS membranes); expressed in transfected cells; host or cells: rat hepatoma cells (membranes, GTPγS assay) or Tango EDG1-bla U2OS cells (Tango assay)
Test: S1P1 GTPγS assay or S1P1 Tango assay (at least one of the above assays)
Format: cell-based
Conditions: read-out: pEC50 in at least one of the above assays (converted)
Protocol: For membrane preparations all steps were performed at 4° C. Rat hepatoma cells stably expressing the human S1P1 receptor or Rat Basophilic Leukaemia cells (RBL) stably expressing human S1P3 receptor were grown to 80% confluency before being harvested into 10 ml Phospho-Buffered Saline (PBS) and centrifuged at 1200 rpm for 5 minutes. After removal of the supernatant, the pellet was re-suspended and cells were homogenised within a glass Waring blender for 2 bursts of 15 secs in 200 mls of buffer (50 mM HEPES, 1 mM leupeptin, 25 μg/ml bacitracin, 1 mM EDTA, 1 mM PMSF, 2 μM pepstatin A). The blender was plunged into ice for 5 mins after the first burst and 10-40 mins after the final burst to allow foam to dissipate. The material was then spun at 500 g for 20 mins and the supernatant spun for 36 mins at 48,000 g. The pellet was resuspended in the same buffer as above but without PMSF and pepstatin A. The material was then forced through a 0.6 mm needle, made up to the required volume, (usually ×4 the volume of the original cell pellet), aliquoted and stored frozen at −80° C. S1P1 GTPγS assay Human S1P1 rat hepatoma membranes (1.5 μg/well) were adhered to a wheatgerm agglutinin (WGA)-coated scintillation proximity assay (SPA) beads (0.125 mg/well) in assay buffer (HEPES 20 mM, MgCl2 10 mM, NaCl 100 mM and pH adjusted to 7.4 using KOH 5M, GDP 10 μM FAC (final assay concentration) and saponin 90 μg/ml FAC was also added).
After 30 minutes pre-coupling on ice the bead and membrane suspension was dispensed into a white Greiner polypropylene LV384-well plate (5 μl/well), containing 0.1 μl of the compound. 5 μl/well [^35S]-GTPγS (0.5 nM final radioligand conc) made up in assay buffer was then added to agonist plates. The final assay cocktail (10.1 μl) was then centrifuged at 1000 rpm for 5 minutes then read immediately on a Viewlux reader.
All test compounds were dissolved in DMSO at a concentration of 10 mM and were prepared in 100% DMSO using a 1 in 4 dilution step to provide 11 point dose response curves. The dilutions were transferred to the assay plates ensuring that the DMSO concentration was constant across the plate for all assays.
All data was normalized to the mean of 16 high and 16 low control wells on each plate. A four parameter curve fit was then applied.
Recombinant EDG1-bla/U2OS cells (contain the human Endothelial Differentiation Gene 1 (EDG1) linked to a TEV protease site and a Gal4-VP16 transcription factor stably integrated into the Tango GPCR-bla U2OS parental cell line) were suspended in assay medium (Invitrogen Freestyle Expression Medium) at a density of 312, 500 cells/ml. Add 100 μl/well of the assay medium to the cell-free control wells (column 12) and 100 μl/well of the cell suspension to the test compound wells (row 2-8, column 1-10), the unstimulated control wells (DMSO) (column 11), and stimulated control wells (S1P) (row 1, column 1-10) in a Corning black-well, clear bottom 96-well plate. Cells were incubated at 37° C., 5% CO2 for 44-48 h. Add 25 μl of 5× stock solution of test compounds in assay medium with 0.5% DMSO to the test compound wells, 25 μl of 5× stock solution of agonist (S1P) in assay medium with 0.5% DMSO to the stimulated compound wells, and 25 μl of 5× stock solution of 0.5% DMSO in assay medium to the unstimulated control and cell-free control wells.
After incubation at 37° C., 5% CO2 for 5 h, 25 μl of 6× substrate mixture (6 μl Solution A (1 mg LiveBLAzer™-FRET B/G substrate (CCF4-AM) in 912 μl DMSO) plus 60 μl Solution B plus 934 μl Solution C) was added to each well and incubate at room temperature for 2 h in dark. The plate was finally read on EnVision for two emission channels (460 nm and 530 nm).
All test compounds were dissolved in DMSO at a concentration of 10 mM and were prepared in 100% DMSO using a 1 in 5 dilution step to provide 10 point dose response curves. […]

T1 sequence (P21453 whole entry, the tested form may be a part): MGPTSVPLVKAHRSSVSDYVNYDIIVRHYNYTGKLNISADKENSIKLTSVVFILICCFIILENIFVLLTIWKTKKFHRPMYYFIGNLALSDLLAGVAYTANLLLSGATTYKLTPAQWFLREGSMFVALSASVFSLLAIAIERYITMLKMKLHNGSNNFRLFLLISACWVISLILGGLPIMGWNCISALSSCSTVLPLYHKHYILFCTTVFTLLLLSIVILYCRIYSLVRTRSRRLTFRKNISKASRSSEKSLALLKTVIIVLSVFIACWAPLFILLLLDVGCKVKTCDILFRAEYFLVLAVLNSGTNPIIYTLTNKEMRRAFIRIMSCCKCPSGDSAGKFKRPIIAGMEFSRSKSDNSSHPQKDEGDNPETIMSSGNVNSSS

SMILES: CC(C)Oc1ccc(-c2nc(-c3cccc4c(CCC(=O)O)c[nH]c34)no2)cc1Cl [Example 1, 3-[7-(5-{3-chloro-4-[(1-methylethyl)oxy]phenyl}-1,2,4-oxadiazol-3-yl)-1H-indol-3-yl]propanoic acid]
- EC50: < 10 nM

SMILES: CC(C)Oc1ccc(-c2nc(-c3cccc4c(CCC(=O)O)cn(C)c34)no2)cc1Cl [Example 2, 3-[7-(5-{3-Chloro-4-[(1-methylethyl)oxy]phenyl}-1,2,4-oxadiazol-3-yl)-1-methyl-1H-indol-3-yl]propanoic acid]
- EC50: < 10 nM

SMILES: CC(C)Oc1ccc(-c2nc(-c3cccc4c(CCC(=O)O)c[nH]c34)no2)cc1C#N [Example 3, 3-[7-(5-{3-Cyano-4-[(1-methylethyl)oxy]phenyl}-1,2,4-oxadiazol-3-yl)-1H-indol-3-yl]propanoic acid]
- EC50: < 1 nM

SMILES: CC(C)Oc1ccc(-c2nc(-c3ccc4c(CCC(=O)O)c[nH]c4c3)no2)cc1C#N [Example 7, 3-[6-(5-{3-Cyano-4-[(1-methylethyl)oxy]phenyl}-1,2,4-oxadiazol-3-yl)-1H-indol-3-yl]propanoic acid]
- EC50: < 1 nM

SMILES: CC(C)Oc1ccc(-c2nc(-c3ccc4[nH]c(C(=O)O)cc4c3)no2)cc1Cl [Example 8, Sodium 5-(5-{3-chloro-4-[(1-methylethyl)oxy]phenyl}-1,2,4-oxadiazol-3-yl)-1H-indole-2-carboxylate]
- EC50: ≥ 1000 nM

SMILES: CC(C)Oc1ccc(-c2nc(-c3ccc(F)c4c(CCC(=O)O)c[nH]c34)no2)cc1Cl [Example 19, 3-[7-(5-{3-Chloro-4-[(1-methylethyl)oxy]phenyl}-1,2,4-oxadiazol-3-yl)-4-fluoro-1H-indol-3-yl]propanoic acid]
- EC50: < 10 nM

SMILES: CC(C)Oc1ccc(-c2nc(-c3ccc(F)c4c(CCC(=O)O)cn(C)c34)no2)cc1Cl [Example 20, 3-[7-(5-{3-Chloro-4-[(1-methylethyl)oxy]phenyl}-1,2,4-oxadiazol-3-yl)-4-fluoro-1-methyl-1H-indol-3-yl]propanoic acid]
- EC50: < 10 nM

SMILES: CC(C)Oc1ccc(-c2nc(-c3ccc(F)c4c(CCC(=O)O)c[nH]c34)no2)cc1C#N [Example 21, 3-[7-(5-{3-Cyano-4-[(1-methylethyl)oxy]phenyl}-1,2,4-oxadiazol-3-yl)-4-fluoro-1H-indol-3-yl]propanoic acid]
- EC50: < 10 nM

SMILES: CCCCn1cc(CCC(=O)O)c2cccc(-c3noc(-c4ccc(OC(C)C)c(Cl)c4)n3)c21 [Example 29, 3-[1-butyl-7-(5-{3-chloro-4-[(1-methylethyl)oxy]phenyl}-1,2,4-oxadiazol-3-yl)-1H-indol-3-yl]propanoic acid]
- EC50: ≥ 1000 nM

SMILES: CC(C)Cn1cc(CCC(=O)O)c2cccc(-c3noc(-c4ccc(OC(C)C)c(Cl)c4)n3)c21 [Example 30, 3-[7-(5-{3-chloro-4-[(1-methylethyl)oxy]phenyl}-1,2,4-oxadiazol-3-yl)-1-(2-methylpropyl)-1H-indol-3-yl]propanoic acid]
- EC50: ≥ 1000 nM

SMILES: CC(C)Oc1ccc(-c2nc(-c3cccc4c(C[C@@H](C)C(=O)O)cn(C)c34)no2)cc1Cl [Example 36, (2R)-3-[7-(5-{3-chloro-4-[(1-methylethyl)oxy]phenyl}-1,2,4-oxadiazol-3-yl)-1-methyl-1H-indol-3-yl]-2-methylpropanoic acid]
- EC50: < 10 nM

SMILES: COc1ccc(-c2nc(-c3cccc4c(CCC(=O)O)cn(C)c34)no2)cc1OC [Example 44, 3-(7-{5-[3,4-bis(methyloxy)phenyl]-1,2,4-oxadiazol-3-yl}-1-methyl-1H-indol-3-yl)propanoic acid]
- EC50: ≥ 1000 nM

SMILES: CC(C)Oc1ccc(-c2nc(-c3cccc4c(CNCCC(=O)O)c[nH]c34)no2)cc1Cl [Example 46, N-{[7-(5-{3-chloro-4-[(1-methylethyl)oxy]phenyl}-1,2,4-oxadiazol-3-yl)-1H-indol-3-yl]methyl}-β-alanine]
- EC50: < 10 nM

SMILES: CC(C)Oc1ccc(-c2nc(-c3cccc4c(CNCC(=O)O)c[nH]c34)no2)cc1Cl [Example 47, N-{[7-(5-{3-chloro-4-[(1-methylethyl)oxy]phenyl}-1,2,4-oxadiazol-3-yl)-1H-indol-3-yl]methyl}glycine]
- EC50: < 1 nM

SMILES: CC(C)Oc1ccc(-c2nc(-c3cccc4c(CN5CCC(C(=O)O)CC5)c[nH]c34)no2)cc1Cl [Example 48, 1-{[7-(5-{3-chloro-4-[(1-methylethyl)oxy]phenyl}-1,2,4-oxadiazol-3-yl)-1H-indol-3-yl]methyl}-4-piperidinecarboxylic acid]
- EC50: < 10 nM

SMILES: CC(C)Oc1ccc(-c2nc(-c3cccc4c(CN[C@H](C)C(=O)O)c[nH]c34)no2)cc1Cl [Example 49, N-{[7-(5-{3-chloro-4-[(1-methylethyl)oxy]phenyl}-1,2,4-oxadiazol-3-yl)-1H-indol-3-yl]methyl}-D-alanine]
- EC50: < 1 nM

SMILES: CC(C)Oc1ccc(-c2nc(-c3cccc4c(CNCCC(=O)O)cn(C)c34)no2)cc1Cl [Example 58, N-{[7-(5-{3-chloro-4-[(1-methylethyl)oxy]phenyl}-1,2,4-oxadiazol-3-yl)-1-methyl-1H-indol-3-yl]methyl}-β-alanine]
- EC50: < 1 nM

SMILES: CC(C)Oc1ccc(-c2nc(-c3cccc4c(CCN5CC(C(=O)O)C5)cn(C)c34)no2)cc1Cl [Example 67, 1-{2-[7-(5-{3-chloro-4-[(1-methylethyl)oxy]phenyl}-1,2,4-oxadiazol-3-yl)-1-methyl-1H-indol-3-yl]ethyl}-3-azetidinecarboxylic acid]
- EC50: < 10 nM

SMILES: CC(C)Oc1ccc(-c2nc(-c3cccc4c(CCNC5(C(=O)O)CC5)cn(C)c34)no2)cc1Cl [Example 68, 1-({2-[7-(5-{3-chloro-4-[(1-methylethyl)oxy]phenyl}-1,2,4-oxadiazol-3-yl)-1-methyl-1H-indol-3-yl]ethyl}amino)cyclopropanecarboxylic acid]
- EC50: < 10 nM

SMILES: CC(C)Oc1ccc(-c2nc(-c3cccc4c(C(=O)NCCC(=O)O)c[nH]c34)no2)cc1Cl [Example 73, N-{[7-(5-{3-chloro-4-[(1-methylethyl)oxy]phenyl}-1,2,4-oxadiazol-3-yl)-1H-indol-3-yl]carbonyl}-β-alanine]
- EC50: < 1 nM

SMILES: CC(C)Oc1ccc(-c2nc(-c3cccc4c(C(=O)NCCCC(=O)O)c[nH]c34)no2)cc1Cl [Example 74, 4-({[7-(5-{3-chloro-4-[(1-methylethyl)oxy]phenyl}-1,2,4-oxadiazol-3-yl)-1H-indol-3-yl]carbonyl}amino)butanoic acid]
- EC50: < 1 nM

SMILES: CC(C)Oc1ccc(-c2nc(-c3cccc4c(C(=O)N(C)CCC(=O)O)c[nH]c34)no2)cc1Cl [Example 75, N-{[7-(5-{3-chloro-4-[(1-methylethyl)oxy]phenyl}-1,2,4-oxadiazol-3-yl)-1H-indol-3-yl]carbonyl}-N-methyl-β-alanine]
- EC50: < 10 nM

SMILES: CC(C)Oc1ccc(-c2nc(-c3cccc4c(C(=O)NCCC(=O)O)cn(C)c34)no2)cc1Cl [Example 76, N-{[7-(5-{3-chloro-4-[(1-methylethyl)oxy]phenyl}-1,2,4-oxadiazol-3-yl)-1-methyl-1H-indol-3-yl]carbonyl}-β-alanine]
- EC50: < 1 nM

SMILES: CC(C)Oc1ncc(-c2nc(-c3ccc4c(CN5CCC(C(=O)O)CC5)c[nH]c4c3)no2)cc1Cl [Example 78, 1-{[6-(5-{5-chloro-6-[(1-methylethyl)oxy]-3-pyridinyl}-1,2,4-oxadiazol-3-yl)-1H-indol-3-yl]methyl}-4-piperidinecarboxylic acid]
- EC50: ≥ 1000 nM
